PMC5540273, “Progress towards a public chemogenomic set for protein kinases and a call for contributions” (PLoS ONE, 2017)

What was measured:
Assay in all cases: KINOMEscan competition binding
CDKL2 = target: T1, CDKL2 (Homo sapiens, UniProt Q92772); conditions: read-out: %Inh CDKL2
T1 sequence (Q92772 1-493): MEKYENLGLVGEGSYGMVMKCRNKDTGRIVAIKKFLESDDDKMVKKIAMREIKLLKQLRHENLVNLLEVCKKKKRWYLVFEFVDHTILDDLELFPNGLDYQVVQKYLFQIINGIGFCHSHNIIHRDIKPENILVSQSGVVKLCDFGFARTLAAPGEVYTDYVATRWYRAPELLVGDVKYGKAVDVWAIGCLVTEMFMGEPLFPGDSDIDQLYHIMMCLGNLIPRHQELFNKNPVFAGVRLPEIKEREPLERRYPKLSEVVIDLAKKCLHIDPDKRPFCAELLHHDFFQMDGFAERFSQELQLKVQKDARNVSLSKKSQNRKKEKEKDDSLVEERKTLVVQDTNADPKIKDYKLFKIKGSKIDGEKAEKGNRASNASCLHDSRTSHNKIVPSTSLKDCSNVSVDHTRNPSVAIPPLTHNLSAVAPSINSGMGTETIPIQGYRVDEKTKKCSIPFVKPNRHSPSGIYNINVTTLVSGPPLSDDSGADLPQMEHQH

DCAMKL2 = target: T2, DCAMKL2 (Homo sapiens, UniProt Q8N568); conditions: read-out: %Inh DCAMKL2
T2 sequence (Q8N568 1-766): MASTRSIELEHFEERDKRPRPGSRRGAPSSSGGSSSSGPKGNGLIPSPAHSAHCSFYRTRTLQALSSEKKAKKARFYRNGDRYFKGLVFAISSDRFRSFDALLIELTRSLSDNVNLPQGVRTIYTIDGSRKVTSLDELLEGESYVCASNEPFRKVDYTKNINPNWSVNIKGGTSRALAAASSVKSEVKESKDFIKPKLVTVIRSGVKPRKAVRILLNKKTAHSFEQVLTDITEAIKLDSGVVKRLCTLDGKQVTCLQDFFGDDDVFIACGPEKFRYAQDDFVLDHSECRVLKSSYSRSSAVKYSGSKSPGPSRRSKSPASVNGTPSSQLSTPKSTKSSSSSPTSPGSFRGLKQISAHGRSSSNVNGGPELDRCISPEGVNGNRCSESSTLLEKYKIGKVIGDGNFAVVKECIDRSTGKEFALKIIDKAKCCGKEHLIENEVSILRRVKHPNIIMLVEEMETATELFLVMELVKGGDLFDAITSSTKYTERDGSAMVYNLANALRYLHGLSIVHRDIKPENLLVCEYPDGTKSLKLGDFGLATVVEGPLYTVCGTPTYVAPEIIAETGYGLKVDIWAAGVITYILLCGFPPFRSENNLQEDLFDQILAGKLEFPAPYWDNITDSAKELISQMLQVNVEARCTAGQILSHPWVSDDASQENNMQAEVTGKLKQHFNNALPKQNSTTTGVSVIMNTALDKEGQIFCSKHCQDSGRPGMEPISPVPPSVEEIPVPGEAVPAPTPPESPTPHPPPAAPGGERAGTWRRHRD

HPK1 = HPK1 (Homo sapiens, UniProt Q92918); conditions: read-out: %Inh HPK1
Chain of HPK1 (Q92918 whole entry): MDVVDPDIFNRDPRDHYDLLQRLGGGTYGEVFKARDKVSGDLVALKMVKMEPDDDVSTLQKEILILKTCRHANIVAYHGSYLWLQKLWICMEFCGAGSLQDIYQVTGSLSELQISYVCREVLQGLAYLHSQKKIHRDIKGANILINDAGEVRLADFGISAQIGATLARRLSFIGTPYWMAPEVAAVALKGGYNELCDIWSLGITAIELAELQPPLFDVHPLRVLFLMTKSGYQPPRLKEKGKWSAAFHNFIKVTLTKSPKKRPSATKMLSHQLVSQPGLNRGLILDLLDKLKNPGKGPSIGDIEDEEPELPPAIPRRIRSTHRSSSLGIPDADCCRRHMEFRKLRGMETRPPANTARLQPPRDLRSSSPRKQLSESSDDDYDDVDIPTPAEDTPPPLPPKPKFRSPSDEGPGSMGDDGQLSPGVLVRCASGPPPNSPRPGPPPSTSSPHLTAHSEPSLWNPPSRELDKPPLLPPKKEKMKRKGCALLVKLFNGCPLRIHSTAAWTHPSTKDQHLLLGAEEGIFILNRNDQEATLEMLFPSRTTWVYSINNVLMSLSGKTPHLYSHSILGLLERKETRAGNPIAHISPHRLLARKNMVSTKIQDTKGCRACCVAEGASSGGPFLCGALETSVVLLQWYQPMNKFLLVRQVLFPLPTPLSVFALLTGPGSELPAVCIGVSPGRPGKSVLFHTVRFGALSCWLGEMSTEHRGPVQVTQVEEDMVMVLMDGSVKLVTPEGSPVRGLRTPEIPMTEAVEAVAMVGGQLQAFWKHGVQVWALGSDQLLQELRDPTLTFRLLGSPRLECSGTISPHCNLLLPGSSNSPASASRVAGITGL

CSNK1E = CSNK1E (Homo sapiens, UniProt P49674); conditions: read-out: %Inh CSNK1E
Chain of CSNK1E (P49674 whole entry): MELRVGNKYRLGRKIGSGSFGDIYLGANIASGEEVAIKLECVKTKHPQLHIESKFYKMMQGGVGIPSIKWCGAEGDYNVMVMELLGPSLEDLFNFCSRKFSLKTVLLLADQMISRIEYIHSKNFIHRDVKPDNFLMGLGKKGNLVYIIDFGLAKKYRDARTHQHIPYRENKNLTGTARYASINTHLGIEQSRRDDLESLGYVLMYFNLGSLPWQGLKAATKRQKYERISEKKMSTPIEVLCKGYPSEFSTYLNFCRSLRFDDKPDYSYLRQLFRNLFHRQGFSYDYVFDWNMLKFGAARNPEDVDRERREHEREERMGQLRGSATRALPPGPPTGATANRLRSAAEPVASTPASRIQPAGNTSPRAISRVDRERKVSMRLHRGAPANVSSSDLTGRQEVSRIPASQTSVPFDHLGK

MAP3K2 = target: T3, MAP3K2 (Homo sapiens, UniProt Q9Y2U5); conditions: read-out: %Inh MAP3K2
T3 sequence (Q9Y2U5 1-619): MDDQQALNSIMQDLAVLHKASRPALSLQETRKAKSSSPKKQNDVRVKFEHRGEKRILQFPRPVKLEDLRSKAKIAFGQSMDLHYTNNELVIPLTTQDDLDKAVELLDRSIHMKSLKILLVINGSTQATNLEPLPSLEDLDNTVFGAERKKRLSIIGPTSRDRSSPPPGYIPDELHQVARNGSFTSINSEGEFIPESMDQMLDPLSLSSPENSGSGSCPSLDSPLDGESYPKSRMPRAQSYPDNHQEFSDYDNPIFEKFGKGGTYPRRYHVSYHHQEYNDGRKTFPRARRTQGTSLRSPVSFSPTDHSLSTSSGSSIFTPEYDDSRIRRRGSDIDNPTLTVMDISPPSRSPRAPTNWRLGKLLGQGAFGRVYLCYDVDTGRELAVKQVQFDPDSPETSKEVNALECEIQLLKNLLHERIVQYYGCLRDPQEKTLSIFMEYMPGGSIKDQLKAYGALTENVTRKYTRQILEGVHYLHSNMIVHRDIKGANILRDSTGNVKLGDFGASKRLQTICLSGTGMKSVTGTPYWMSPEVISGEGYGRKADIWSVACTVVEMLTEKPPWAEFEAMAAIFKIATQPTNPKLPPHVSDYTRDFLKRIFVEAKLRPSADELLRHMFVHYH

ERBB3 = ERBB3 (Homo sapiens, UniProt P21860); conditions: read-out: %Inh ERBB3
Chain of ERBB3 (P21860 20-1342): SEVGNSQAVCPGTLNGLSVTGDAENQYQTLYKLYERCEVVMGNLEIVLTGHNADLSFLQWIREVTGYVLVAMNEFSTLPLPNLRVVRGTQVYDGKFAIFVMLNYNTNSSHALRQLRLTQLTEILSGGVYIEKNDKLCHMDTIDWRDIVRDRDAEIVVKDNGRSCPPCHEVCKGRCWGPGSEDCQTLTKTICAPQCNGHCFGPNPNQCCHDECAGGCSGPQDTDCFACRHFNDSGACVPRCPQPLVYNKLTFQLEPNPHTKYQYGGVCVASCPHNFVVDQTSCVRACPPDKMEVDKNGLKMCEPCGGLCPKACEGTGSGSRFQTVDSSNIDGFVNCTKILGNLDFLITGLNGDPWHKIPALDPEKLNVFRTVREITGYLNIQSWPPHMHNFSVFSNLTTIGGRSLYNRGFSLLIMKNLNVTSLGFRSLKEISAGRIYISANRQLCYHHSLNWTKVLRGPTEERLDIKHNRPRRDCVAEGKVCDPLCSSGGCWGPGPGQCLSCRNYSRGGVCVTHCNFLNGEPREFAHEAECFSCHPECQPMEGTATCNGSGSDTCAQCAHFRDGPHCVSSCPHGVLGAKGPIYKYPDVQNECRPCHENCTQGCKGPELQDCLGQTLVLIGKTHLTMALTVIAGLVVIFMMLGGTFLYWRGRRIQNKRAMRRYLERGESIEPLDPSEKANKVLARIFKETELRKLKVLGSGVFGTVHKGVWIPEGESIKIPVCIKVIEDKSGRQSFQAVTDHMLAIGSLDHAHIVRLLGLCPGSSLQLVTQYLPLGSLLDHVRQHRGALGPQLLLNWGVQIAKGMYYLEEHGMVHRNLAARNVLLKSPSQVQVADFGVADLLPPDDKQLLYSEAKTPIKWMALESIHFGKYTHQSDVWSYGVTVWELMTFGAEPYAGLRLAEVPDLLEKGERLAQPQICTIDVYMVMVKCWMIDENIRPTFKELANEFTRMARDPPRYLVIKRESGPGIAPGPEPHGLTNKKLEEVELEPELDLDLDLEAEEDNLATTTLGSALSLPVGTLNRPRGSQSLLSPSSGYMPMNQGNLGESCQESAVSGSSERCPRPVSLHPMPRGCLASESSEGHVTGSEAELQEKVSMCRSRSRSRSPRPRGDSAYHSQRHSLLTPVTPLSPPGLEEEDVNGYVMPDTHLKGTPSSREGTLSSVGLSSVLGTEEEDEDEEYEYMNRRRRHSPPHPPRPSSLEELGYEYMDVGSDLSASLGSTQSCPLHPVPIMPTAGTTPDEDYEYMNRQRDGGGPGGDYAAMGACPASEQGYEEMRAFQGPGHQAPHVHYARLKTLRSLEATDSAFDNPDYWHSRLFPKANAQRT

EPHA7 = EPHA7 (Homo sapiens, UniProt Q15375); conditions: read-out: %Inh EPHA7
Chain of EPHA7 (Q15375 28-998): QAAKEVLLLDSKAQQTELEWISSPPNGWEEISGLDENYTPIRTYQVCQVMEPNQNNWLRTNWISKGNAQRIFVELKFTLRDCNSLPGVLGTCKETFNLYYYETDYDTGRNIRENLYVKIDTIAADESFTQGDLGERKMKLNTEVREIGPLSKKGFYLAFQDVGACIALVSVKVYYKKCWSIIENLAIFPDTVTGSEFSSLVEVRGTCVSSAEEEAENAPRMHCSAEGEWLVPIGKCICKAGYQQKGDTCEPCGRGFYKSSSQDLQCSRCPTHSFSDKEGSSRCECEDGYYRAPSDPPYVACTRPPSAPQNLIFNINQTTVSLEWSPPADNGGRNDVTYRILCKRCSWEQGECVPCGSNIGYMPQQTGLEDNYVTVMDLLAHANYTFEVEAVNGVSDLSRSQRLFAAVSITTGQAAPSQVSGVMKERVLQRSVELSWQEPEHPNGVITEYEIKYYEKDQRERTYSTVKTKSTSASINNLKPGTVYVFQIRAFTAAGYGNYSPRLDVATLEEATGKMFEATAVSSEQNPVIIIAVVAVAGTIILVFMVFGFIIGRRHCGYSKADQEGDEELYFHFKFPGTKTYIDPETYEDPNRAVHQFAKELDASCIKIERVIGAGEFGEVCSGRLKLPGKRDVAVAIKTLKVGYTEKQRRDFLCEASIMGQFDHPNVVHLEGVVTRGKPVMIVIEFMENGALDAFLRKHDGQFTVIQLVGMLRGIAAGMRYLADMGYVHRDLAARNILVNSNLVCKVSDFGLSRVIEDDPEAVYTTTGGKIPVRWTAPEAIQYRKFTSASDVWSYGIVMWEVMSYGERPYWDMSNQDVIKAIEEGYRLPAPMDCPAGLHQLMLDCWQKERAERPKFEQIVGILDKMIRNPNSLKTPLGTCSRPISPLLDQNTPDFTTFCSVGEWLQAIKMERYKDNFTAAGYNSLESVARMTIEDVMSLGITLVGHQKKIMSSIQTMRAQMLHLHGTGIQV

GRK7 = target: T4, GRK7 (Homo sapiens, UniProt Q8WTQ7); conditions: read-out: %Inh GRK7
T4 sequence (Q8WTQ7 1-553): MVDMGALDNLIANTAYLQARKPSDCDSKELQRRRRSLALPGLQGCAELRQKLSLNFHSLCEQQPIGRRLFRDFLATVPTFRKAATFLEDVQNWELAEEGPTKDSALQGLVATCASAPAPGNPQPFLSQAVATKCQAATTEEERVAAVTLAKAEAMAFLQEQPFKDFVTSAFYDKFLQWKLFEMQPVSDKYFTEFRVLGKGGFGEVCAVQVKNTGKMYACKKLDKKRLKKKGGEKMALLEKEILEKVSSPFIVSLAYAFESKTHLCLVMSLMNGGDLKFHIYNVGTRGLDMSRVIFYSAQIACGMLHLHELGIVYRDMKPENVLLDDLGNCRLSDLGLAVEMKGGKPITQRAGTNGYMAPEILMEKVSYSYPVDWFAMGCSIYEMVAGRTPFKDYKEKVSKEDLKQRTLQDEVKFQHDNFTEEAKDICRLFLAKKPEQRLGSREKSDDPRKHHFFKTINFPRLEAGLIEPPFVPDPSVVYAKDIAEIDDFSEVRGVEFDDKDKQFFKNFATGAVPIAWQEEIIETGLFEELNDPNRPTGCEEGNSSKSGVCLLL

`Cn1cc(-c2cnc(N)c3c(-c4ccc5c(c4)CCN5C(=O)Cc4ccccc4)csc23)cn1` [UNC10225012A] showed an inhibition at 1 µM (CDKL2) of 0%, an inhibition at 1 µM (DCAMKL2) of 0% and an inhibition at 1 µM (HPK1) of 94%. It also gave an inhibition at 1 µM (CSNK1E) of 1%, an inhibition at 1 µM (MAP3K2) of 75% and an inhibition at 1 µM (ERBB3) of 4%. The inhibition at 1 µM (EPHA7) was 6% and the inhibition at 1 µM (GRK7) was 6%.

In the case of `CS(=O)(=O)Cc1ccc(Nc2nccc(-c3c(-c4cccc(NC(=O)C5CCCCC5)c4)nn4ncccc34)n2)cc1` [UNC10225159A], the inhibition at 1 µM (CDKL2) is reported as 5%, the inhibition at 1 µM (DCAMKL2) is reported as 15% and the inhibition at 1 µM (HPK1) is reported as 14%. For the same compound, the inhibition at 1 µM (CSNK1E) was 20%, the inhibition at 1 µM (MAP3K2) was 15% and the inhibition at 1 µM (ERBB3) was 22%. The inhibition at 1 µM (EPHA7) was 15% and the inhibition at 1 µM (GRK7) was 5%.

For `Cc1ccc(NC(=O)Nc2cccc(C(F)(F)F)c2)cc1` [UNC10225187A], the inhibition at 1 µM (CDKL2) was 0%, the inhibition at 1 µM (DCAMKL2) was 0% and the inhibition at 1 µM (HPK1) was 0%. It also gave an inhibition at 1 µM (CSNK1E) of 0%, an inhibition at 1 µM (MAP3K2) of 0% and an inhibition at 1 µM (ERBB3) of 17%. For the same compound, the inhibition at 1 µM (EPHA7) was 2% and the inhibition at 1 µM (GRK7) was 10%.

`COc1cccc(OC)c1C(=O)Nc1cccc(-c2nn3ccccc3c2-c2ccnc(Nc3cccc(F)c3)n2)c1` [UNC10225310A] gave an inhibition at 1 µM (CDKL2) of 6%, an inhibition at 1 µM (DCAMKL2) of 0% and an inhibition at 1 µM (HPK1) of 2%. It also gave an inhibition at 1 µM (CSNK1E) of 64%, an inhibition at 1 µM (MAP3K2) of 7% and an inhibition at 1 µM (ERBB3) of 0%. It also gave an inhibition at 1 µM (EPHA7) of 14% and an inhibition at 1 µM (GRK7) of 17%.

With `O=c1cc(N2CCOCC2)nc2n(Cc3cccc(Cl)c3Cl)c(C3CC3)nn12` [UNC10225469A] the inhibition at 1 µM (CDKL2) was 0%, the inhibition at 1 µM (DCAMKL2) was 7% and the inhibition at 1 µM (HPK1) was 14%. The inhibition at 1 µM (CSNK1E) was 11%, the inhibition at 1 µM (MAP3K2) was 0% and the inhibition at 1 µM (ERBB3) was 9%. For the same compound, the inhibition at 1 µM (EPHA7) was 0% and the inhibition at 1 µM (GRK7) was 0%.
